# Earlier results in paper PMC6941357, “An in vitro toolbox to accelerate anti-malarial drug discovery and development” (Malaria Journal, 2020).
# “And” between values parts separate entries of the source, which are not always exact repeats. Identical values can stand only once. Like-named read-outs stand apart in the source and are kept apart here. Marks after values point to notes of the source that are not given here.
# Assays:
# [1] = human, cited from earlier work
# [2] = target: CYP3A4 (Homo sapiens, UniProt P08684); parameters: from tissue; host or cells: human liver microsomes; conditions: human liver microsomes, cited from earlier work
# Chain of CYP3A4 (P08684 whole entry): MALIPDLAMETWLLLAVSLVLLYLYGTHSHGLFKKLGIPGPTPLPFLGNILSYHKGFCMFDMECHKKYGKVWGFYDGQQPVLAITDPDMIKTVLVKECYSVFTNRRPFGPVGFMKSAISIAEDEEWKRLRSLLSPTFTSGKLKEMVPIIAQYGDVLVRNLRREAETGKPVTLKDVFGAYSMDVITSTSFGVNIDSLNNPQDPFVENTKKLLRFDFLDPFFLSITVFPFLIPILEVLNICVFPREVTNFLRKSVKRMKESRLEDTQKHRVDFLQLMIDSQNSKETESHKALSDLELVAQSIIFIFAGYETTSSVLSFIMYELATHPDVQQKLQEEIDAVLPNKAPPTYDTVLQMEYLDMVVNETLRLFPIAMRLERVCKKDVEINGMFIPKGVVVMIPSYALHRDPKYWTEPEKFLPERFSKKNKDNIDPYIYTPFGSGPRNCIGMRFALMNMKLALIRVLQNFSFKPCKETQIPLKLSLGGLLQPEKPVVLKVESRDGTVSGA
# [3] = system: human liver microsomes; conditions: human liver microsomes, cited from earlier work
# [4] = target: CYP2D6 (Homo sapiens, UniProt P10635); parameters: from tissue; host or cells: human liver microsomes; conditions: human liver microsomes, cited from earlier work
# Chain of CYP2D6 (P10635 whole entry): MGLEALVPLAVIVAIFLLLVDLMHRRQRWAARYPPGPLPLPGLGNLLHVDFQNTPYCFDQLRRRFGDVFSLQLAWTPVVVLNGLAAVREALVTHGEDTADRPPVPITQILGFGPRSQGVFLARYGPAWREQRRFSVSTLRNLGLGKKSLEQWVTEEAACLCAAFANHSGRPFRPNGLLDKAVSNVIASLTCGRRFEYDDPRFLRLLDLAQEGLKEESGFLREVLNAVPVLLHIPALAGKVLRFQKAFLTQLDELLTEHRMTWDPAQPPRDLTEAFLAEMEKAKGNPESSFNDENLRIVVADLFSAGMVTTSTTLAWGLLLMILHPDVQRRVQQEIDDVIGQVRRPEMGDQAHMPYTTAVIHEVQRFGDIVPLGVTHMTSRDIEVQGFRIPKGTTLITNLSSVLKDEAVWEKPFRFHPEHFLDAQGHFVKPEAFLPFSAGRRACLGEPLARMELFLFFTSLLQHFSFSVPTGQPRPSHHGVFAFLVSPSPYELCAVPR
# [5] = target: CYP2C19 (Homo sapiens, UniProt P33261); parameters: from tissue; host or cells: human liver microsomes; conditions: human liver microsomes, cited from earlier work
# Chain of CYP2C19 (P33261 whole entry): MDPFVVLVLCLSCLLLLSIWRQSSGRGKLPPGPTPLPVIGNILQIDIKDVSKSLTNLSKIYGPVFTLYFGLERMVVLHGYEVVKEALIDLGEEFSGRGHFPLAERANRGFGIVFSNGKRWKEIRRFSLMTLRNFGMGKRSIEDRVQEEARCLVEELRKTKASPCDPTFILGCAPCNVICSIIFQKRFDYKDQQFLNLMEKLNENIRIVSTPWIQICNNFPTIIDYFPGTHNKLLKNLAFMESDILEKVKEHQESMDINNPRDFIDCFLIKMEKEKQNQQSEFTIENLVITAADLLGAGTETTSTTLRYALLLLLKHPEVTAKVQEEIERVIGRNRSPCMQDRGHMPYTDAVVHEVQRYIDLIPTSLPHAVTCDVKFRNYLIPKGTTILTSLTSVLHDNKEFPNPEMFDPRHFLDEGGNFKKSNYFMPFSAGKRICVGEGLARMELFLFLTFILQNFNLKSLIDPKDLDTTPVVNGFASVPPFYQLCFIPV
# [6] = target: T1, CYP1A2 (Homo sapiens, UniProt P05177); parameters: from tissue; host or cells: human liver microsomes; conditions: human liver microsomes, cited from earlier work; for CYP1A2 % inhibition at max conc: nmi = no measurable inhibition
# T1 sequence (P05177 1-516): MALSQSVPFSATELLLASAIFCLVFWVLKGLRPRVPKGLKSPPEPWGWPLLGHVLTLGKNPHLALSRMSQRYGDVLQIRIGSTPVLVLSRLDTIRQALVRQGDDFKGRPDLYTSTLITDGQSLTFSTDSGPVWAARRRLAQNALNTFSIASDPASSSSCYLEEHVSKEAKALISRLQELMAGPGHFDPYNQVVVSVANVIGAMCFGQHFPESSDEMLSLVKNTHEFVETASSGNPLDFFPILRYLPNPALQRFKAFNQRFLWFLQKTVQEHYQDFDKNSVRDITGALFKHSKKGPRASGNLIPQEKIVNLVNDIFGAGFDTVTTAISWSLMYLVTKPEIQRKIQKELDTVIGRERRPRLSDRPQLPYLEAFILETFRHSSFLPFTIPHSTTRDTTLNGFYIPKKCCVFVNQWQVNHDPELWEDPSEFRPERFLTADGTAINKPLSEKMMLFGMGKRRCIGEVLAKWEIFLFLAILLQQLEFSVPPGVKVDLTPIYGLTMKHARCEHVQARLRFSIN
# [7] = target: CYP2C9 (Homo sapiens, UniProt P11712); parameters: from tissue; host or cells: human liver microsomes; conditions: human liver microsomes, cited from earlier work
# Chain of CYP2C9 (P11712 whole entry): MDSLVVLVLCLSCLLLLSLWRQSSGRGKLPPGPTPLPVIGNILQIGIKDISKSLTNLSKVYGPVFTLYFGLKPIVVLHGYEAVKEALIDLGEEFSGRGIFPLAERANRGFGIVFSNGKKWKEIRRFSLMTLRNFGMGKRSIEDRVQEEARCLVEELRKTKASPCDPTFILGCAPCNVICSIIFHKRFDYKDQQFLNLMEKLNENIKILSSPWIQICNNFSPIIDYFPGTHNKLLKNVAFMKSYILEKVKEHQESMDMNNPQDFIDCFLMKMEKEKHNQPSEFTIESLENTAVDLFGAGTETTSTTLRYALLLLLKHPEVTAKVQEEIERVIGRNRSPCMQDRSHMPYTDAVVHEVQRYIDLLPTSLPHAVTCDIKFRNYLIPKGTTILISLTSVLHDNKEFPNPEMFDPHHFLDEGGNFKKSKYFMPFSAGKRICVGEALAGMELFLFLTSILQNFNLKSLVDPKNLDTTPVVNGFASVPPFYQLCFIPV
# [8] = parameters: method as in earlier work; conditions: octanol/pH 7.4 buffer; ref 77 (M5717), 78 (DSM421); cited from earlier work
# [9] = system: human liver microsomes; conditions: ref 79 (DSM265), 78 (DSM421); cited from earlier work
# [10] = cited from earlier work; for Solubility FaSSGF (1 h) / Solubility FaSSIF-V2 (5–6 h) / Solubility FeSSIF-V2 (5–6 h): ref 77 (M5717), 78 (DSM421), 79 (DSM265)
# [11] = target: T2, Albumax medium (lipid rich bovine serum albumin) (Bos taurus, UniProt P02769); parameters: method as in PMID 26180101; conditions: cited from earlier work
# T2 construct: purchased Gibco, Thermo Fisher Scientific
# T2 sequence (P02769 25-607): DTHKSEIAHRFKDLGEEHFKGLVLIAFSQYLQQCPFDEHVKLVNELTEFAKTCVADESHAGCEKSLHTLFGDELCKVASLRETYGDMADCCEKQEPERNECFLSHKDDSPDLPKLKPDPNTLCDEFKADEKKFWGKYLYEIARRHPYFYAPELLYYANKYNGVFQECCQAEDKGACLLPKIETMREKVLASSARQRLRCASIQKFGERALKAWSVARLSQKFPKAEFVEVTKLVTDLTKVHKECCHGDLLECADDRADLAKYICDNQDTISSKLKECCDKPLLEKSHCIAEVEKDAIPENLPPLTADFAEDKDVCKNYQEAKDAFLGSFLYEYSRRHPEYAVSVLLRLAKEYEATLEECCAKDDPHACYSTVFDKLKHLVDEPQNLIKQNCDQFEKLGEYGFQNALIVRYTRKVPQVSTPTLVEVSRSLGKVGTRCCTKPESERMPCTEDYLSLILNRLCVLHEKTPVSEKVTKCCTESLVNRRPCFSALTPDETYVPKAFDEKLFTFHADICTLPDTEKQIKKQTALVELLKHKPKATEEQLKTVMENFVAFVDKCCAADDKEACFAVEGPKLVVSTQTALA
# [12] = apparent oral volume of distribution
# [13] = CYP3A4 (test), read-out: CYP3A4 (test) IC50
smiles,measurement,setting,value
COc1cc(C)c2c(Oc3cccc(C(F)(F)F)c3)c(OC)cc(NC(C)CCCN)c2n1 (stereo not drawn) [Tafenoquine],CL/F,[1]; apparent oral clearance,3.0 L/h
same,V/F,[1]; [12],1600 L
same,Food effect,[1],yes
same,half-life,[1],360 h
same,half-life,[1]; ref Table 10,~ 15 days
CS(=O)(=O)O.FC1CCN(CCOc2ccc(C3CCC4(CC3)OOC3(OO4)C4CC5CC(C4)CC3C5)cc2)CC1 (stereo not drawn) [TDD-E209],CYP3A4 (midaz) % inhibition at max conc,[2]; CYP3A4 (midaz),33%
same,IC50,"[2]; CYP3A4 (midaz), read-out: CYP3A4 (midaz) IC50",> 20 µM
same,CYP3A4 (test) % inhibition at max conc,[2]; CYP3A4 (test),43%
same,IC50,[2]; [13],> 20 µM
same,HLM CLint,[3],25.5^e µL/min/mg
same,IC50,[4],> 20 µM
same,CYP2D6 % inhibition at max conc,[4]; nmi = no measurable inhibition,nmi
same,IC50,[5],> 20 µM
same,CYP2C19 % inhibition at max conc,[5]; nmi = no measurable inhibition,nmi
same,IC50,[6],> 20 µM
same,CYP1A2 % inhibition at max conc,[6],nmi
same,IC50,[7],> 20 µM
same,CYP2C9 % inhibition at max conc,[7]; nmi = no measurable inhibition,nmi
Cc1cc(Nc2ccc(C(F)(F)F)nc2)n2nc(C(C)(F)F)nc2n1 [DSM421],CYP3A4 (test) % inhibition at max conc,"[2]; CYP3A4 (test), nmi = no measurable inhibition",nmi
same,IC50,[2]; [13],> 20 µM
same,Measured Log D7.4,[8],2.36 ^g
same,"Fraction unbound, HLM",[9],0.77 ± 0.065^f
same,CYP2D6 % inhibition at max conc,[4],33%
same,IC50,[4],> 20 µM
same,Solubility FaSSGF (1 h),[10],116 µg/mL and 324 µM
same,Solubility FaSSIF-V2 (5–6 h),[10],92.7 µg/mL and 259 µM
same,Solubility FeSSIF-V2 (5–6 h),[10],119 µg/mL and 332 µM
same,IC50,[5],> 20 µM
same,CYP2C19 % inhibition at max conc,[5]; nmi = no measurable inhibition,nmi
same,IC50,[6],> 20 µM
same,CYP1A2 % inhibition at max conc,[6],nmi
same,CYP2C9 % inhibition at max conc,[7],16%
same,IC50,[7],> 20 µM
COc1cc(NC(C)CCCN)c2ncccc2c1 (stereo not drawn) [Primaquine],half-life,"[1]; in vivo, ref Table 10",~ 7 h
same,CL/F,[1]; apparent oral clearance,28 L/h
same,V/F,[1]; [12],277 L
same,Food effect,[1],no
same,half-life,[1],7 h
O=C(NCCN1CCCC1)c1cc(-c2ccc(CN3CCOCC3)cc2)nc2ccc(F)cc12 [M5717],Measured Log D7.4,[8],2.50 ^g
same,Solubility PBS7.4 (5–6 h),[10],> 3000 µg/mL and > 6490 µM
same,Solubility FaSSGF (1 h),[10],> 3000 µg/mL and > 6490 µM
same,Solubility FaSSIF-V2 (5–6 h),[10],> 3000 µg/mL and > 6490 µM
same,Solubility FeSSIF-V2 (5–6 h),[10],> 3000 µg/mL and > 6486 µM
"CC(C)(N)CNC(=O)C[C@H]1CC[C@]2(CC1)OO[C@]1(O2)C2CC3CC(C2)CC1C3 [OZ277, Arterolane]",half-life,"[1]; in vivo, ref Table 10",~3 h
same,CL/F,[1],184 L/h
same,Food effect,[1],no
same,V/F,[1],929 L
same,half-life,[1],3 h
Cc1cc(Nc2ccc(S(F)(F)(F)(F)F)cc2)n2nc(C(C)(F)F)nc2n1 [DSM265],"Fraction unbound, Albumax",[11],0.18 ± 0.0050^f
same,CYP3A4 (test) % inhibition at max conc,[2]; CYP3A4 (test),34%
same,IC50,[2]; [13],> 20 µM
same,HLM CLint,[3]; < 15% loss over 60 min,"< 7^b,e µL/min/mg"
same,"Fraction unbound, HLM",[9],0.28 ± 0.0070^f
same,IC50,[4],7.1 µM
same,Ki,[4],4.4 µM
same,Solubility FaSSIF-V2 (5–6 h),[10],5.12 µg/mL and 12.3 µM
same,CYP2C19 % inhibition at max conc,[5],19%
same,IC50,[5],> 20 µM
same,IC50,[6],> 20 µM
same,CYP1A2 % inhibition at max conc,[6],nmi
same,CYP2C9 % inhibition at max conc,[7],25%
same,IC50,[7],> 20 µM
C[C@H]1[C@@H](O)O[C@@H]2O[C@@]3(C)CC[C@H]4[C@H](C)CC[C@@H]1[C@@]24OO3 [Dihydroartemisinin],half-life,"[1]; in vivo, ref Table 10",approximately 1 h
same,CL/F,[1],272 L/h
same,Food effect,[1],no
same,V/F,[1],385 L
